# Earlier results in US20230150977A1, “PYRIDAZINONE COMPOUNDS FOR THE TREATMENT OF NEUROMUSCULAR DISEASES” (Edgewise Therapeutics, Inc., priority 2020, published 2023).
# Tested on: embryos from zebrafish model of DMD
# Settings: Li and Arner, PLoSONE, 2015; cited from earlier work
smiles,measurement,value
"Cc1ccc(S(=O)(=O)NCc2ccccc2)cc1 [BTS, N-benzyl-p-tolyl-sulfonamide]",protection of muscles from pathological muscle derangement,protect muscles from pathological muscle derangement
